Experimental data reported in patent publication US8349791B2, “Polypeptides that bind membrane proteins” (The Trustees of the University of Pennsylvania, priority 2006, dated 2013).
Peptide text beside a SMILES is read from it.

Assays:
Format in all cases: cell-based
αIIbβ3 = target: T1, αIIbβ3 (Homo sapiens, UniProt P08514); experiment: Force spectroscopy (laser tweezers), platelets and fibrinogen-coated beads
T1 construct: trapped from a suspension of gel filtered human platelets or CHO cells; endogenous in cells; host or cells: gel-filtered human platelets
T1 sequence (P08514 891-1039 limits assumed): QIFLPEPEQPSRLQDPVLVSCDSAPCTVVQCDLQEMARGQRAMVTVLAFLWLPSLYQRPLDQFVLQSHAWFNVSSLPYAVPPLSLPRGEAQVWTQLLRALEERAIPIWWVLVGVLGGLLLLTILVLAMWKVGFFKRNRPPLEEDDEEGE
T1 sequence (P08514 32-887 partner limits assumed): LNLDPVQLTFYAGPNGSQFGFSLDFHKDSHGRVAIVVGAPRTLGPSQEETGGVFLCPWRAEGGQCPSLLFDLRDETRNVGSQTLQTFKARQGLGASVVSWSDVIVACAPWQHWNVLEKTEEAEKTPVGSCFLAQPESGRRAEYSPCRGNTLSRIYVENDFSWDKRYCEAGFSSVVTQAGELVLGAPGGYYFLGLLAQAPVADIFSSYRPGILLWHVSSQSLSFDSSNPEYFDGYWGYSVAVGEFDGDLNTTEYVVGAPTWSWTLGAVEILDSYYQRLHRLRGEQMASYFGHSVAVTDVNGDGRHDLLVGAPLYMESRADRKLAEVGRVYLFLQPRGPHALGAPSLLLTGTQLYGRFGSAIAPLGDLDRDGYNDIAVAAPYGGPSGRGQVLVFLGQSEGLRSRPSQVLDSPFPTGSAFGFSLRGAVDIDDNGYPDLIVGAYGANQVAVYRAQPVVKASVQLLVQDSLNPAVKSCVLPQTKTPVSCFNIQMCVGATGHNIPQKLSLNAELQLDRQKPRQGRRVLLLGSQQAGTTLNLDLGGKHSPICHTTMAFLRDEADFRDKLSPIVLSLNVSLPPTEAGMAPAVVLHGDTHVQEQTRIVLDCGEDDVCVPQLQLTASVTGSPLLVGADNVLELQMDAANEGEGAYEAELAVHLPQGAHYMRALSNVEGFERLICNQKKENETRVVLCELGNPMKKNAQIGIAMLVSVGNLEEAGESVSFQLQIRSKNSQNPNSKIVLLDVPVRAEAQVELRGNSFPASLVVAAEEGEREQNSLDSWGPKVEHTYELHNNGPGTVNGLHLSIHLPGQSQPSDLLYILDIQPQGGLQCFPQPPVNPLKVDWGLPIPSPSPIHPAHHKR
T1 sequence (P05106 27-788 partner): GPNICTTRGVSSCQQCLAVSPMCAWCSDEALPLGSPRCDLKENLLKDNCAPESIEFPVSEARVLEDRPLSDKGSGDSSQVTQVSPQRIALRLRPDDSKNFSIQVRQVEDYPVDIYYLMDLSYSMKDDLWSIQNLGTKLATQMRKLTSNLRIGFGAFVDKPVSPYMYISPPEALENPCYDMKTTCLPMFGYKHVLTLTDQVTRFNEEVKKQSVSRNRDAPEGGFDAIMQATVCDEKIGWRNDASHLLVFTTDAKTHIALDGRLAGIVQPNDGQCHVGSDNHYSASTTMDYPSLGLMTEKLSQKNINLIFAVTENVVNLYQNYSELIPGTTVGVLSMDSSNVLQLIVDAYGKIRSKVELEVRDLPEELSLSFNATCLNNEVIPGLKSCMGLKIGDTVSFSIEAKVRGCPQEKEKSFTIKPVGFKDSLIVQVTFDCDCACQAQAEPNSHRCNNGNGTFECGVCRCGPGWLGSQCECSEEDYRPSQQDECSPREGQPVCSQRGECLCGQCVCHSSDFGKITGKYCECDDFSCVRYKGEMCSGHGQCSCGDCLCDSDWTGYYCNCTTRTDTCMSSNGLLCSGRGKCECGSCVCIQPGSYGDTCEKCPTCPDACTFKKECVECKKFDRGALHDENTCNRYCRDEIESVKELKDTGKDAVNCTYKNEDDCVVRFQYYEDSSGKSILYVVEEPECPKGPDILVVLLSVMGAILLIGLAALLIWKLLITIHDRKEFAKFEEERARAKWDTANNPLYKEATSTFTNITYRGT
From the text: Litvinov R I et al. Proc. Natl. Acad. Sci. USA. 99, 7426-31 (2002). Recombinant human OPN, prepared as previously described (Bennett J S et al. J. Biol. Chem. 272, 8137-40 (1997)) or purified human fibrinogen was covalently bound to 0.93 μm carboxylate-modified latex beads. Individual cells, trapped from a suspension of gel filtered human platelets or CHO cells, were manually attached to 5 μm diameter silica pedestals coated with polylysine. An OPN- or fibrinogen-coated bead, trapped by the laser light, was then brought into proximity of an immobilized cell, oscillated at 50 Hz, and then brought into repeated intermittent contact with the cell by micromanipulation. Data collection was initiated at the first contact between the bead and the cell. Rupture forces following repeated contacts were collected for periods of several seconds to one minute. Individual forces measured during each contact-detachment cycle were collected into 10 pN-wide bins. The number of events in each bin was then plotted against the average force for that bin after normalizing for the total number of interaction cycles. Thus, the percentage of events in a particular force range (bin) represents the probability of rupture events at that tension. Optical artifacts observed with or without trapped latex beads produce signals that appeared as forces below 10 pN. Therefore, rupture forces in this range were not considered when the data were analyzed. The polypeptide was added from a DMSO solution such that the final concentration of DMSO was no greater than 0.5%. All controls also had 0.5% DMSO in the buffer.
Beads coated with fibrinogen were brought into intermittent contact with immobilized platelets in the presence or absence of anti-αIIb and the rupture force was measured. Litvinov R I et al. J. Biol. Chem. 278, 51285-51290 (2003). In the absence of anti-αIIb, the binding probability of platelets and fibrinogen-coated beads decreased exponentially (FIG. 5a) with increasing force, consistent with a non-specific interaction of the beads with the platelet surface. Litvinov R I (2003). […]

α2 TM domain = target: T2, α2 TM domain (Homo sapiens, UniProt P17301); experiment: DN-TOXCAT heterodimerization; settings: coexpressed in bacterial membranes
T2 construct: expressed in transfected cells; host or cells: E. coli MM39, pDNToxR-Duet
T2 sequence (P17301 with tags, fused parts or gaps limits assumed): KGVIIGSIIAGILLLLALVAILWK
Procedure: (§1) Both the affinity and specificity of the membrane protein-binding peptides for their targets when coexpressed in bacterial membranes were assessed with a DN-“TOXCAT” assay (FIGS. 3a-3c). In TOXCAT, a TM sequence of interest is fused to a ToxR protein (TM-ToxR) that binds to the ctx promoter as a dimer, which induces expression of chloramphenicol acetyltransferase (CAT) (W. P. Russ, D. M. Engelman, Proc. Natl. Acad. Sci. U.S.A. 96, 863 (1999); D. Langosch, B. Brosig, H. Kolmar, H. J. Fritz, J. Mol. Biol. 263, 525 (1996)). In the DN assay, the TM1-ToxR fusion protein is coexpressed with a second fusion protein (TM2-ToxR*) containing a nonfunctional mutant of the ToxR domain. TM-driven dimerization leads to a ToxR-ToxR* dimer that is unable to bind the ctx promoter or to induce CAT synthesis (FIG. 3a). The resulting decrease in CAT activity can be used to monitor the formation of a heterodimeric TM complex. In principle, this assay could be accomplished by adding an exogenous synthetic peptide (D. Gerber, N. Sal-Man, Y. Shai, J. Mol. Biol. 339, 243 (2004)); however, it is difficult to assure that different peptides will be similarly inserted into the Escherichia coli inner membrane.
(§2) For testing the specificity of the designed membrane protein-binding polypeptide sequences against the integrin TM domains, the designed sequences (anti-αIIb and anti-αV) were cloned into MCS1 of the Duet vector and the integrin TM domains into MCS2 of the Duet vector. In this configuration, the integrin TMs compete for the homodimers formed by the polypeptide sequences, with the decrease in CAT signal proportional to the extent of heterodimerization between a given integrin TM and polypeptide sequence relative to the homodimerization of the polypeptide sequence.
(§3) Single MM39 colonies containing pDNToxR-Duet constructs from selective plates were chosen, inoculated in 5 mL of LB medium containing 100 μg/mL ampicillin and grown to an OD600 of 0.2 at 37° C. with vigorous shaking. IPTG was added to the medium at a final concentration of 0.1 mM IPTG and grown to an OD600 of 0.7. Purification, immunoblotting, CAT ELISA and MalE complementation assays are essentially as described previously. Li, R., Gorelik, R., Nanda, V., Law, P. B., Lear, J. D., DeGrado, W. F. and Bennett, J. S. J. Biol. Chem. 2004, 279, 26666-26673 (2004). For immunoblotting, anti-MBP (NEB) was used for pccKAN (TOXCAT) constructs, whereas anti-myc (Covance) and anti-HA (Covance) were used for pDNToxR-Duet constructs. CAT ELISA results are an average of 3 independent replicates.

β1 TM domain = target: T3, β1 TM domain (Homo sapiens, UniProt P05556); experiment: DN-TOXCAT heterodimerization; settings: coexpressed in bacterial membranes
T3 construct: expressed in transfected cells; host or cells: E. coli MM39, pDNToxR-Duet
T3 sequence (P05556 with tags, fused parts or gaps limits assumed): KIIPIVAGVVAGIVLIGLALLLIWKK
Procedure: as §1, §2, §3

β3 TM domain = target: T4, β3 TM domain (Homo sapiens, UniProt P05106); experiment: DN-TOXCAT heterodimerization; settings: coexpressed in bacterial membranes
T4 construct: expressed in transfected cells; host or cells: E. coli MM39, pDNToxR-Duet
T4 sequence (P05106 with tags, fused parts or gaps limits assumed): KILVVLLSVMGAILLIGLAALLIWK
Procedure: as §1, §2, §3

[1] = tested on: gel-filtered human platelets; experiment: Platelet aggregation, turbidometric
Procedure: Platelet-rich plasma, prepared from human blood anti-coagulated with 0.1 volume of 0.13 M sodium citrate, was gel-filtered on Sepharose 2B (Amersham Biosciences, Piscataway, N.J.) using an elution buffer containing 137 mM NaCl, 2.7 mM KCl, 1 mM MgCl2, 5.6 mM glucose, 0.35 mg/ml bovine serum albumin, 3.3 mM NaH2PO4, and 4 mM HEPES (pH=7.4), as previously described. Jordan P et al. Nature 411, 909-917 (2001). Turbidometric measurements of platelet aggregation were performed in a Chrono-Log Lumi-Dual Aggregometer. Aliquots (0.4 ml) of the gel-filtered platelet suspension were supplemented with 200 μg/ml human fibrinogen (Enzyme Research Labs., South Bend, Ind.) and 1 mM CaCl2 (final concentrations) prior to adding platelet agonists. The polypeptide was added from a DMSO solution such that the final concentration of DMSO was no greater than 0.5%. All controls also had 0.5% DMSO in the buffer.

Compound | rupture force / activation, platelets and fibrinogen-coated beads (αIIbβ3) | interaction with α2 TM domain (α2 TM domain) | interaction with β1 TM domain (β1 TM domain) | interaction with β3 TM domain (β3 TM domain) | induced aggregation in the presence of PGE1 and apyrase ([1]; 1 μM peptide, 2 μM PGE1, 10 units/ml apyrase) | induced aggregation in the presence of EDTA, Arg-Gly-Asp-Ser or antibody A2A9 ([1]; agents that directly target αIIbβ3) | platelet aggregation response ([1]; gel-filtered human platelets) | peak of rupture force between platelets and fibrinogen-coated beads (αIIbβ3; 0.5 μM polypeptide) [pN] | rupture force peak after pre-incubation with αIIbβ3 antibody abciximab (αIIbβ3; 0.5 μM polypeptide)
AYVFILLSFILGTLLGFLVMFWA [anti-αV] | no peak of specific rupture force was observed |  |  |  |  |  |  |  | 
CC[C@H](C)[C@H](NC(=O)[C@H](Cc1ccccc1)NC(=O)[C@H](Cc1ccccc1)NC(=O)[C@@H]1CCCN1C(=O)[C@H](CC(C)C)NC(=O)[C@H](CC(C)C)NC(=O)[C@H](CCSC)NC(=O)[C@@H](NC(=O)[C@H](Cc1ccc(O)cc1)NC(=O)[C@H](C)NC(=O)[C@H](CCCCN)NC(=O)[C@@H](N)CCCCN)C(C)C)C(=O)NCC(=O)N[C@@H](CC(C)C)C(=O)N[C@@H](CC(C)C)C(=O)N[C@@H](CC(C)C)C(=O)NCC(=O)N[C@@H](CC(C)C)C(=O)N[C@H](C(=O)N[C@@H](Cc1ccccc1)C(=O)NCC(=O)NCC(=O)N[C@@H](C)C(=O)N[C@@H](Cc1ccccc1)C(=O)N[C@@H](Cc1c[nH]c2ccccc12)C(=O)NCC(=O)N1CCC[C@H]1C(=O)N[C@@H](C)C(=O)N[C@@H](CCCNC(=N)N)C(=O)N[C@@H](Cc1c[nH]cn1)C(=O)N[C@@H](CC(C)C)C(=O)N[C@@H](CCCCN)C(=O)N[C@@H](CCCCN)C(N)=O)[C@@H](C)CC [anti-αIIb] (H-KKAYVMLLPFFIGLLLGLIFGGAFWGPARHLKK-NH2; N-terminus assumed) |  | failed to significantly interact | failed to significantly interact | failed to significantly interact | only minimally affected | inhibited | highly active | ~70 | eliminated the rupture force peak
